Laboratory results: patent publication US10682409B2, “Therapeutic treatment” (priority 2012, dated 2020)

Experiments:
Type in all cases: in vivo, human
[1] = Examples 3-11: weight and height (velocity, percentile curve, course) of ADHD Patients A-H
Procedure: In an embodiment, a therapeutically effective amount of a therapeutic compound disclosed herein increases the weight or height of an individual is determined by an increase in the individual's weight or height velocity as compared to an individual nor receiving a therapeutic compound for appetite reduction. In an embodiment, weight and/or height velocity can be calculated by taking measurements of height and/or weight of an individual over a period of time and measuring an increase or decrease in an individual's height and/or weight over the period of time. In an embodiment, weight velocity is calculated by taking three time points, time 0 upon initiation of medication to treat ADHD, time 1 addition of an appetite stimulant, time 2 the last data point after initiation of combination treatment. In an embodiment, a formula to calculate weight and height velocity for stimulant alone is (weightT1−weight T0)/days from Time 0 to time 1. In an embodiment, a formula to calculate weight velocity for combination treatment is (weightT2−weight T1)/days from time 1 to time 2. In an embodiment, to evaluate whether weight velocity increased after addition of an appetite stimulant, the weight velocity of time 0 to time 1 is compared to the weight velocity from time 1 to time 2. In an embodiment, height velocity is calculated by taking three time points, time 0 upon initiation of medication to treat ADHD, time 1 addition of an appetite stimulant, time 2 the last data point after initiation of combination treatment. The formula to calculate height velocity for stimulant alone is (weightT1−weight T0)/days from Time 0 to time 1. The formula to calculate height velocity for combination treatment is (weightT2−weight T1)/days from time 1 to time 2. In an embodiment, to evaluate whether height velocity increased after addition of an appetite stimulant, the height velocity of time 0 to time 1 is compared to the height velocity from time 1 to time 2.
Eight patients, identified as patients A-H, that came in suffering from ADHD were treated for ADHD. […] Each patient was then prescribed an appetite simulant to be taken along with the amphetamine or methylphenidate. The patients' weight, height and attentiveness were then followed during the course of treatment.
(§1) The age range of the patients was from 6-15 years of age, with a mean age at the start of treatment for ADHD of 8.4 years of age. The mean age at the start of the combination treatment wherein the patient was administered an amphetamine or methylphenidate and an appetite stimulant was 10.3 years of age. The mean treatment period for the eight patients was 1,108 days with a mean of 2.55 ADHD medication changes during the treatment period. Attentiveness in the eight patients was measured using CGI-S and CGI-I. Patients weight and height velocity were measured to identify a difference in weight and height gain prior to and after addition of an appetite stimulant to the treatment for ADHD. Weight velocity was calculated by taking three time points, time 0 upon initiation of medication to treat ADHD, time 1 addition of an appetite stimulant, time 2 the last data point after initiation of combination treatment. The formula to calculate weight velocity for stimulant alone is (weightT1−weight T0)/days from Time 0 to time 1. The formula to calculate weight velocity for combination treatment is (weightT2−weight T1)/days from time 1 to time 2.

[2] = system: patients suffering from ADHD; assay: Clinical Global Impression-Severity scale (CGI-S), Patients A-H
Procedure: In an embodiment, attentiveness is measured using the Clinical Global Impression rating scales to measure symptom severity, treatment response and the efficacy of treatments in treatment studies of patients with mental disorders (Guy, W., 1976). In an embodiment, attentiveness is measure using the Clinical Global Impression-Severity scale (“CGI-S”). In an embodiment, CGI-S is a 7-point scale that requires the clinician to rate the severity of the patient's illness at the time of assessment, relative to the clinician's past experience with patients who have the same diagnosis. Considering total clinical experience, a patient is assessed on severity of mental illness at the time of rating 1, normal, not at all ill; 2, borderline mentally ill; 3, mildly ill; 4, moderately ill; 5, markedly ill; 6, severely ill; or 7, extremely ill. In an embodiment, attentiveness is measured using the Clinical Global Impression-Improvement scale (“CGI-I”). […] In an embodiment, attentiveness is measured using the Clinical Global Impression-Efficacy Index (“CGI-E”).
as §1

[3] = system: patient suffering from ADHD; assay: Example 1: patient suffering from ADHD treated with and without an appetite stimulant (appetite, blood glucose, attentiveness by CGI-S and CGI-I)
Excerpt: A patient suffering from ADHD is prescribed and administered an amphetamine to treat ADHD. The patient takes the amphetamine once a day in the morning or afternoon. […] As a result, the glucose level measured in the blood increases as shown in FIG. 1 and the patient's attentiveness recovers as measured by CGI-S and CGI-I. By taking the appetite stimulant during the time when the patient was awake, the patient increased their caloric intake during times when the patient needed to maintain their attentiveness in order to have reasonable cognition and/or social behaviour.

[4] = Example 2 case study: child with ADHD on methylphenidate, then Periactin (height, weight, percentiles, attentiveness); settings: for height percentile compared to girls their age / weight percentile compared to girls their age / weight: methylphenidate
Excerpt: Case study: A child was presented by their parents for symptoms of attention deficit hyperactivity disorder. Their size at evaluation was 4′1¾″ and 50 lbs, corresponding to the 81st and 50th percentiles when compared to girls their age. […] At three months following the initiation of treatment for ADHD, the child was 4′2⅞″ and 50½ lbs, corresponding to the 85th and 34rd percentiles when compared to girls their age. At one year, they were 4′4⅜″ and 53 lbs, corresponding to the 84th and 36th percentiles when compared to girls their age. At two years they were 4′5¾″ and 54 lbs, corresponding to the 72nd and 17th percentiles when compared to girls their age. At four years of treatment they were 4′7⅜″ and 59 lbs, corresponding to 70th and 14th percentiles when compared to girls their age. At five years of treatment they were 4′9⅞″ and 64½ lbs, corresponding to 59th and 7th percentiles when compared to girls their age.
The child was then prescribed Periactin at a dosage of 2 mg b.i.d. to attempt to stimulate appetite. The dose was taken in the morning and then in the afternoon. After one year they were 4′11½″ and 72½ lbs, corresponding to 33rd and 5th percentiles when compared to girls their age. The child was then prescribed Periactin at a dose of 4 mg b.i.d. After two months on this dose, they were 5′¼″ and 76 lbs, corresponding to 37th and 8th percentiles when compared to girls their age. At 8 months on this dose, they were 5′½″ and 80 lbs, corresponding to 41st and 8th percentiles when compared to girls their age. At one year on this dose, they were 5′2¾″ and 89½ lbs, corresponding to 51st and 17th percentiles when compared to girls their age. At 18 months on this dose, they were 5′3⅝″ and 99½ lbs, corresponding to 56th and 30th percentiles when compared to girls their age. Additionally, the attentiveness of the child increase following the prescription of Periactin as they increased their food intake during the day.

[5] = Patient E, Concerta 27 mg then Focalin XR 10-15 mg alone, FIG. 12
[6] = various forms of methylphenidate

## COC(=O)[C@H](c1ccccc1)[C@H]1CCCCN1 [Focalin XR, dexmethylphenidate]
[1]; Patient B, Focalin XR 10 mg then 15 mg alone, FIG. 6
  weight course: slow and then became slightly erratic
[1]; [5]
  weight course: did not increase substantively
[2]; Patient E, Focalin XR 10 mg (before dose increase), FIG. 13
  CGI-S score: 6
[2]; Patient E, Focalin XR 15 mg from day 162, FIG. 13
  CGI-S score: 5
[2]; Patient G, Focalin XR 15 mg alone (dropped from 5), FIG. 17
  CGI-S score: 4

## COC(=O)C(c1ccccc1)C1CCCCN1 (centres unmarked) [Ritalin LA, methylphenidate]
[1]; Patient F, Ritalin LA with Focalin, then Daytrana patch, without Periactin, FIG. 14
  weight course: did not increase substantively
[2]; Patient F, Ritalin LA 20 mg and Focalin 5 mg, FIG. 15
  CGI-S score: 7
[2]; Patient F, Ritalin LA 30 mg and Focalin 5 mg from day 46, FIG. 15
  CGI-S score: 6

## COC(=O)C(c1ccccc1)C1CCCCN1 (centres unmarked) [Daytrana patch, methylphenidate]
[2]; Patient F, Daytrana patch 15 mg (day 469), 20 mg (day 606), FIG. 15
  CGI-S score: 5

## CC(N)Cc1ccccc1 (centres unmarked) [amphetamine]
[3]; amphetamine once a day alone
  attentiveness as measured by CGI-S and CGI-I: lack of attentiveness
[3]; amphetamine once a day alone, FIG. 1
  glucose level measured in the blood: drops
[3]; amphetamine once a day in the morning or afternoon, alone
  appetite: loss of appetite

## C[C@@H](Cc1ccccc1)NC(=O)[C@@H](N)CCCCN [Vvyanase, lisdexamfetamine]
[1]; Patient H, Vvyanase 40 mg alone, FIG. 18
  weight course: little weight gain
[2]; Patient H, Vvyanase 40 mg alone (dropped from 6), FIG. 19
  CGI-S score: 5

## COC(=O)C(c1ccccc1)C1CCCCN1 (centres unmarked) [Concerta, methylphenidate]
[1]; Patient A, Concerta 18 mg alone, from about day 371, FIG. 4
  weight course: began to lose weight again
[1]; Patient C, Concerta 36 mg alone, FIG. 8
  weight course: little weight gain followed by weight loss
[1]; [5]
  weight course: did not increase substantively
[2]; Patient A, Concerta 18 mg alone, constant for almost 400 days, FIG. 5
  CGI-S score: 4
[2]; Patient C, Concerta 36 mg alone, FIG. 9
  CGI-S score: 5
[2]; Patient D, Concerta 18 mg before combination, FIG. 11
  CGI-S score: 6

## COC(=O)C(c1ccccc1)C1CCCCN1 (centres unmarked) [methylphenidate]
[4]; five years
  height percentile compared to girls their age: 59 percentile
  weight percentile compared to girls their age: 7 percentile
[4]; four years
  height percentile compared to girls their age: 70 percentile
  weight percentile compared to girls their age: 14 percentile
[4]; four years of treatment
  weight: 59 lbs
[4]; one year
  height percentile compared to girls their age: 84 percentile
  weight: 53 lbs
  weight percentile compared to girls their age: 36 percentile
[4]; three months
  height percentile compared to girls their age: 85 percentile
  weight percentile compared to girls their age: 34 percentile
[4]; two years
  height percentile compared to girls their age: 72 percentile
  weight: 54 lbs
  weight percentile compared to girls their age: 17 percentile
[4]; [6]
  response of ADHD to treatment: responded well
  side-effect: suppression of appetite and a lack of significant weight gain
